Reference: publication PMC12239106, “Discovery of conformation constrained tetracyclic compounds as potent chitinase OfChi-h inhibitors with a novel binding mode” (Journal of Enzyme Inhibition and Medicinal Chemistry, 2025)
Like-named read-outs stand apart in the source and are kept apart here.

Key:
[1] = biological target: T1, SmChiA (Serratia marcescens, UniProt P07254); assay: Chitinase inhibition assay and Ki determination (MU-β-(GlcNAc)2 substrate, Dixon plot), SmChiA; type: biochemical; details: for Ki: Dixon plot, three substrate concentrations; for inhibition at 10 µM: 10 μM inhibitor, 10 nM enzyme, 4 μM MU-β-(GlcNAc)2, pH 6.0, 30 °C, 20 min
T1 construct: made in house; host or cells: Escherichia coli BL21(DE3)
Procedure: (§1) SmChiA was expressed in Escherichia coli BL21(DE3), HsChit1 and OfChi-h were overexpressed in Pichia pastoris GS115. The Escherichia coli BL21(DE3) strain was purchased from TaKaRa Biotech (Dalian, […]) while the Pichia pastoris GS115 strain was obtained from Invitrogen (Thermo Fisher Scientific, CA, USA), both of which were cultured and handled according to the protocols provided by suppliers. All chitinases were purified using immobilised metal ion affinity chromatography as previously described. Briefly, solid ammonium sulphate was slowly added to the culture supernatant to achieve 75% saturation. After incubation at 4 °C for 24 h, the precipitated proteins were collected by centrifugation at 12,000 × g for 30 min at 4 °C. The pellet was resuspended thoroughly in buffer A (20 mM sodium phosphate, 0.5 M sodium chloride, pH 7.4), and the solution was centrifuged again at 12,000 × g for 15 min at 4 °C to remove insoluble material. The clarified supernatant was loaded onto a 5 ml HisTrap™ Crude affinity column (GE Healthcare) that had been pre-equilibrated with buffer A. The column was subsequently washed with buffer A containing 75 mM imidazole to remove non-specifically bound proteins. Recombinant chitinases were eluted using buffer A containing 250 mM imidazole. The expressed proteins were quantified using a BCA protein assay kit (TaKaRa Biotech, China). And their purities were determined by SDS-PAGE and found to be >95% in all cases.
(§2) Chitinase activities for SmChiA, HsChit1 and OfChi-h were determined using 4-methylumbelliferyl-N, N′-diacetyl-β-D-chitobioside (MU-β-(GlcNAc)2) (purchased from Sigma) as a substrate. The final reaction mixture volume used for inhibitor screening was 100 μL, consisting of 10 nM enzyme, 4 μM MU-β-(GlcNAc)2, 10 μM inhibitor, and 2% DMSO in a 20 mM sodium phosphate buffer (pH 6.0). The reaction in the absence of inhibitor was used as a positive control. After incubation at 30 °C for 20 min, 0.5 M sodium carbonate was added to the reaction mixture, and the fluorescence produced by the released 4-MU was quantified with a Varioskan Flash microplate reader (Thermo Fisher Scientific) using excitation and emission wavelengths of 360 and 450 nm, respectively. Experiments were performed in triplicate unless specified otherwise. For Ki value determination, the inhibitor concentration was varied in the above reaction, and different concentrations of substrate (2–8 μM) were used. The amount of released 4-MU was quantified as above, and the Ki value and the mode of inhibition were determined using the Dixon plot.

[2] = biological target: T2, OfChi-h (Ostrinia furnacalis, UniProt Q4AE59); details: read-out: OfChi-h Ki; cited from earlier work
T2 construct: made in house; host or cells: Pichia pastoris GS115

[3] = biological target: T3, HsChit1 (Homo sapiens, UniProt Q13231); assay: Chitinase inhibition assay and Ki determination (MU-β-(GlcNAc)2 substrate, Dixon plot), HsChit1; type: biochemical; details: three substrate concentrations
T3 construct: made in house; host or cells: Pichia pastoris GS115
Procedure: SmChiA was expressed in Escherichia coli BL21(DE3), HsChit1 and OfChi-h were overexpressed in Pichia pastoris GS115. The Escherichia coli BL21(DE3) strain was purchased from TaKaRa Biotech (Dalian, […]) while the Pichia pastoris GS115 strain was obtained from Invitrogen (Thermo Fisher Scientific, CA, USA), both of which were cultured and handled according to the protocols provided by suppliers. All chitinases were purified using immobilised metal ion affinity chromatography as previously described. Briefly, solid ammonium sulphate was slowly added to the culture supernatant to achieve 75% saturation. After incubation at 4 °C for 24 h, the precipitated proteins were collected by centrifugation at 12,000 × g for 30 min at 4 °C. […] The expressed proteins were quantified using a BCA protein assay kit (TaKaRa Biotech, China). And their purities were determined by SDS-PAGE and found to be >95% in all cases.
Chitinase activities for SmChiA, HsChit1 and OfChi-h were determined using 4-methylumbelliferyl-N, N′-diacetyl-β-D-chitobioside (MU-β-(GlcNAc)2) (purchased from Sigma) as a substrate. […] After incubation at 30 °C for 20 min, 0.5 M sodium carbonate was added to the reaction mixture, and the fluorescence produced by the released 4-MU was quantified with a Varioskan Flash microplate reader (Thermo Fisher Scientific) using excitation and emission wavelengths of 360 and 450 nm, respectively. […]

[4] = biological target: T2, OfChi-h; assay: Chitinase inhibition assay and Ki determination (MU-β-(GlcNAc)2 substrate, Dixon plot), OfChi-h; type: biochemical; details: for inhibition at 10 µM: 10 μM inhibitor, 10 nM enzyme, 4 μM MU-β-(GlcNAc)2, pH 6.0, 30 °C, 20 min; for Ki: Dixon plot, substrate 2–8 μM
Procedure: as §1, §2

T2 sequence (Q4AE59 18-553): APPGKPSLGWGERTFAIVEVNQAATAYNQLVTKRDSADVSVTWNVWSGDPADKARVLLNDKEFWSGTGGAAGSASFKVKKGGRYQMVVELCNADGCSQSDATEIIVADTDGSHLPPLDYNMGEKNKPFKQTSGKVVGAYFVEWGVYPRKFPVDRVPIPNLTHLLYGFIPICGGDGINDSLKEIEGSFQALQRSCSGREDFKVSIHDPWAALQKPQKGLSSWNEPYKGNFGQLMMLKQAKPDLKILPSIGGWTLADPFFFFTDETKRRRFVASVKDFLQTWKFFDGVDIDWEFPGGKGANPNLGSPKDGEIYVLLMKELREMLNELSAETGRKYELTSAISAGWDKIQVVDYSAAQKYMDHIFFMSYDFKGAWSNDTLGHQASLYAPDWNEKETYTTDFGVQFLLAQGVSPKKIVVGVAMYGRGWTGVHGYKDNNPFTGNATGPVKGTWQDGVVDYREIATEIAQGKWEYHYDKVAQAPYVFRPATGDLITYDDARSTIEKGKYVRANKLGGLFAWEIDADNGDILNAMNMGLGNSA
T1 sequence (P07254 24-563): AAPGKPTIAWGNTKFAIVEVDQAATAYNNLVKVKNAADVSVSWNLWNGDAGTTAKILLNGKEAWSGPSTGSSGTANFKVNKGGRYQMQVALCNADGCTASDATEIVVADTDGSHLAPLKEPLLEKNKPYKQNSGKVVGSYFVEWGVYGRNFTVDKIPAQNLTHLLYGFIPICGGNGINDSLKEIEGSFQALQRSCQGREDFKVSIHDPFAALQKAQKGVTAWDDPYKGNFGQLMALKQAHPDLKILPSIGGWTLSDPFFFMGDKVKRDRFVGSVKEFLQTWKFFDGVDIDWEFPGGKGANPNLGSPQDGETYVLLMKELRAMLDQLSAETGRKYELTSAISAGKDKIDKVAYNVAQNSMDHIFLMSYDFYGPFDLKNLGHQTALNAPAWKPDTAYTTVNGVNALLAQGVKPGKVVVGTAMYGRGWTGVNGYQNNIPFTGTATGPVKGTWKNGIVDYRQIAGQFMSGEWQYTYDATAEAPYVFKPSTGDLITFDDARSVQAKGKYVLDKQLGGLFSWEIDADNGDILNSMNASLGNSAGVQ
T3 sequence (Q13231 22-466): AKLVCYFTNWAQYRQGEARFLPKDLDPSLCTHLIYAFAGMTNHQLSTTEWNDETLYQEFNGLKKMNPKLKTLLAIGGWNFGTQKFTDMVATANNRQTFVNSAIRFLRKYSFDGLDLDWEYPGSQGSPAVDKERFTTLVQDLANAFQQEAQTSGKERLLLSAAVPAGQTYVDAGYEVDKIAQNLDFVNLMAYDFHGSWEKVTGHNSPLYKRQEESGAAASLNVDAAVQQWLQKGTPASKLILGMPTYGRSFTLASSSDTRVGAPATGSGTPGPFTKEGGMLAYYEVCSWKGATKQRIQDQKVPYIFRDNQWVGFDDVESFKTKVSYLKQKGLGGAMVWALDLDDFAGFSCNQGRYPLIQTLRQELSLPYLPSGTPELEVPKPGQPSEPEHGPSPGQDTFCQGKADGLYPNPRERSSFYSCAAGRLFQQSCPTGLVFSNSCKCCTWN

SMILES	Ki [1] [nM]	Ki [2] [nM]	inhibition at 10 µM [1] [%]	Ki [3] [nM]	inhibition at 10 µM [4] [%]	Improvement in inhibitory activity against OfChi-h (Ki) compared to 5a ([4]; 6a Ki versus 5a Ki)	Ki [4] [nM]
Cc1cccn2c(=O)c3cc(C(=O)NCc4cccnc4)c(N)nc3nc12 [5a, reference compound]	6190 ± 155	860	–	–	–	–	–
Cc1cccn2c(=O)c3cc4c(=O)n(Cc5cccnc5)cnc4nc3nc12 [6a]	126	–	98.5 ± 0.2	295	99.3 ± 0.2	approximately 15 fold	58
Cc1cccn2c(=O)c3cc4c(=O)n(C(C)c5cccnc5)cnc4nc3nc12 (stereo not shown) [6b]	–	–	88.7 ± 2.2	–	96.8 ± 0.1	–	215
Cc1cccn2c(=O)c3cc4c(=O)n(Cc5cnccn5)cnc4nc3nc12 [6c]	–	–	91.5 ± 0.8	–	95.3 ± 0.5	–	294
Cc1cccn2c(=O)c3cc4c(=O)n(Cc5ccccc5)cnc4nc3nc12 [6d]	–	–	32 ± 1.4	–	72.5 ± 2.4	–	1420
COc1cc(Cn2cnc3nc4nc5c(C)cccn5c(=O)c4cc3c2=O)cc(OC)c1OC [6e]	–	–	28.2 ± 4.8	–	96.2 ± 0.3	–	65
COc1ccc(Cn2cnc3nc4nc5c(C)cccn5c(=O)c4cc3c2=O)cc1OC [6f]	–	–	34.2 ± 2.5	–	69.3 ± 4.4	–	747
COc1ccc(Cn2cnc3nc4nc5c(C)cccn5c(=O)c4cc3c2=O)cc1 [6g]	–	–	30.3 ± 2.7	–	74 ± 2	–	1030
Cc1cccn2c(=O)c3cc4c(=O)n(Cc5cccc(N)c5)cnc4nc3nc12 [6h]	–	–	37.9 ± 0.4	–	89 ± 1.5	–	276
Cc1cccn2c(=O)c3cc4c(=O)n(Cc5ccc(Cl)c(F)c5)cnc4nc3nc12 [6i]	–	–	31.7 ± 0.2	–	42.9 ± 1	–	2890
Cc1cccn2c(=O)c3cc4c(=O)n(CCc5c[nH]c6ccccc56)cnc4nc3nc12 [6j]	–	–	42.4 ± 4.1	–	49.6 ± 2.2	–	–
Cc1cccn2c(=O)c3cc4c(=O)n(Cc5ccco5)cnc4nc3nc12 [6k]	–	–	47.5 ± 1.2	–	86.8 ± 0.8	–	1510
C#CCn1cnc2nc3nc4c(C)cccn4c(=O)c3cc2c1=O [6l]	–	–	37.5 ± 2.2	–	81 ± 0.8	–	1340
